Laboratory results published in patent US6955921B2, “Trypsin substrate and diagnostic device, and method of using same” (Bayer Corporation, priority 2001, dated 2005).
“And” between values parts separate entries of the source, which are not always exact repeats. Equal entries are not always repeated.

Legend:
[1] = target: T1, Bovine Pancreatic Trypsin (Bos taurus, UniProt P00760); test: Dry-phase analytical element (reagent strip) for UTI measurement, decode from reflectance; type: biochemical; conditions: reflectance at 15 and 60 seconds; for decode, Negative Sample: Negative Sample = Water, substrate 1.25 mM in second dip; for decode, Positive Sample: Positive Sample = Water with 200 IU/mL urine trypsin inhibitor (ulinastatin)
T1 construct: purchased Calbiochem 6502; host or cells: bovine pancreas
T1 sequence (P00760 24-246): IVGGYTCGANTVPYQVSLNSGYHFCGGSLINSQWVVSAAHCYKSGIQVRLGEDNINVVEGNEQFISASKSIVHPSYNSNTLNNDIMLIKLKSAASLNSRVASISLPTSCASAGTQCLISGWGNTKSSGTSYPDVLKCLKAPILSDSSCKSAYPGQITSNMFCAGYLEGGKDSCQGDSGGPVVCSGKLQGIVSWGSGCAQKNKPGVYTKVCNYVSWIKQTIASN
Procedure: Reagent strips were made according to the following procedure: Filter paper (240 C grade from Ahlstrom Inc.) was saturated with the first dip solution and dried for 2 minutes at 80° C. and 4 minutes at 60° C. The resultant paper was then saturated with the second dip solution and dried for 6 minutes at 50° C. to form the completed reagent paper. Adhesive ([…] from 3M Inc.) was applied to the reagent paper and it was affixed to a polystyrene handle in the form of pads, which were 0.20 inch×0.20 inches square. A. Composition of the First Dip: • a. Water • b. Bicine Buffer (600 mM) • c. Ethylene glycol bis (β-aminoethyl ether) N,N,N',N'-tetra-acetic acid (EGTA) (5.1 mM) • d. Plasdone (PVP K30 from Sigma-Aldrich) (1.75% by weight) • e. MgSO4 (660 mM) • f. Bovine Pancreatic Trypsin (Calbiochem Cat. No. 6502) (272 units/mL) • g. Adjust to pH 8.00±0.02 with 1N NaOH. B. Composition of the Second Dip: • a. Acetone • b. […] KOK-10071 polymer (from Bayer Corporation) (0.1% by weight) Data were obtained by dipping the strips into the samples set out in Table 1 and placing them in a […] 50 spectrometer from Bayer Diagnostics to collect data at 15 and 60 seconds after dipping. Decode values were calculated using the equation: decode={[(B15+G15)-(B60+G60)]/(B15+G15)}*1000 Where: • B15 is the reflectance of the blue wavelength at 15 seconds, • B60 is the reflectance of the blue wavelength at 60 seconds, • G15 is the reflectance of the green wavelength at 15 seconds, and • […] is the reflectance of the green wavelength at 60 seconds.

[2] = target: T1, Bovine Pancreatic Trypsin; test: Dry-phase analytical element for trypsin detection, colour with MMBD diazonium salt; type: biochemical; conditions: within one minute
Procedure: (§1) Reagent strips were made according to the following procedure: Filter paper (240 C grade from Ahlstrom Inc.) was saturated with the first dip solution and dried at ambient temperature for 2 hours, then at 110° C. for 5 minutes. The resultant paper was saturated with the second dip solution and dried for about 1 minute at 60° C. to form the completed, white reagent paper. The paper was then cut into pads, which were 0.25 inch×0.25 inches square.
(§2) A. Composition of the First Dip:
• a. Water (25.0 mL) • b. Ethylene glycol bis (β-aminoethyl ether) N,N,N′,N′-tetra-acetic acid (EGTA) (0.06 g) • c. Plasdone (PVP K30 from Sigma-Aldrich) (0.438 g) • d. MgSO4 (1.08 g) B. Composition of the Second Dip: • a. Acetone (7.75 mL) • b. Example 3 trypsin substrate (4-(Nα-tosyl-NG-nitro-L-argininyloxy)-2-phenyl-5H-thiazole, 3.1 mg) • c. 2-Methoxy-4-morpholinobenzene diazonium chloride, zinc chloride double salt (MMBD) (diazonium coupling agent) (2.5 mg)
(§3) Identical pads were separately wetted with 25 μL portions of two different test solutions. One test solution was 50 mM pH=8 phosphate buffer (control solution) and the second was 50 mM pH=8 phosphate buffer containing 10,000 U/mL of bovine pancreatic trypsin (test solution).

[3] = target: T2, trypsin (Bos taurus, UniProt P00760); test: Modified liquid assay with reagent pads, rate of fluorescent emission increase; type: biochemical, bovine; conditions: pH=7 buffer, excitation 335 nm
T2 sequence (P00760 24-246): T1 sequence (P00760 24-246)
Procedure: Trypsin concentrations may be instrumentally determined with the reagent pads in a modified liquid assay. Three reagent pads are extracted with 2.0 mL of 50 mM pH=7 buffer containing 0-20 u/mL of trypsin. Fluorescent emission at 385 nm is measured with a Perkin-Elmer Model LS-5 fluorescence spectrophotometer using excitation at 335 nm, and is reported in luminescence units (LU). The rate of increase of emission at 385 nm was determined graphically from the plot of LU vs. time output by the instrument.

[4] = target: T1, Bovine Pancreatic Trypsin; test: Dry-phase analytical element for trypsin detection, fluorescence under 365 nm UV; type: biochemical; conditions: within one minute
Procedure: as §1, §2
• a. Water (24.55 mL) • b. Ethylene glycol bis (β-aminoethyl ether) N,N,N′,N′-tetra-acetic acid (EGTA) (0.06 g) • c. Plasdone (PVP K30 from Sigma-Aldrich) (0.876 g) • d. MgSO4 (1.08 g) B. Composition of the Second Dip: • a. Acetone (9.3 mL) • b. Acetic acid (0.108 mL) • c. Example 5 trypsin substrate (7-(Nα-tosyl-NG-nitro-L-argininyloxy)-4-methylcoumarin, 5.0 mg)
as §3, with “solutions and viewed under long wavelength (365 nm) ultraviolet light illumination.” for “solutions.”, “pH=7” for “pH=8”

Question: Which “decode, Negative Sample” value [1] does the source give for `Cc1ccc(S(=O)(=O)N[C@@H](CCCNC(N)=N[N+](=O)[O-])C(=O)Oc2c[nH]c(-c3ccccc3)c2)cc1` [Example 1, 3-(Nα-tosyl-NG-nitro-L-argininyloxy)-5-phenylpyrrole] here?
Answer: Its value is 474.

Question: What about the “decode, Positive Sample” value [1] of the same compound?
Answer: Its value is 212.

Question: For `Cc1ccc(S(=O)(=O)NC(CCCN=C(N)N[N+](=O)[O-])C(=O)Oc2c[nH]c3ccccc23)cc1` [Example 2, 3-(Nα-tosyl-NG-nitro-L-argininyloxy)indole], which “decode, Negative Sample” value [1] is on record?
Answer: The value was 422.

Question: And the “decode, Positive Sample” value [1]?
Answer: The value was 168.

Question: What does the source list for `Cc1ccc(S(=O)(=O)N[C@@H](CCCNC(N)=N[N+](=O)[O-])C(=O)Oc2csc(-c3ccccc3)n2)cc1` [Example 3, 4-(Nα-tosyl-NG-nitro-L-argininyloxy)-2-phenyl-5H-thiazole]?
Answer: pad colour, test solution ([2]; 50 mM pH=8 phosphate buffer containing 10,000 U/mL bovine pancreatic trypsin): turned blue; pad colour, control solution ([2]; 50 mM pH=8 phosphate buffer without trypsin): remained white

Question: With `Cc1ccc(S(=O)(=O)N=C(N)NCCC[C@H](NS(=O)(=O)c2ccc(C)cc2)C(=O)Oc2c[nH]c(-c3ccccc3)c2)cc1` [Example 4, 3-(Nα-tosyl-NG-tosyl-L-argininyloxy)-5-phenylpyrrole] as the compound, how does the “decode, Negative Sample” value [1] read?
Answer: The value was 61.

Question: And the “decode, Positive Sample” value [1]?
Answer: Its value is 30.

Question: Which results are given for `Cc1ccc(S(=O)(=O)N[C@@H](CCCNC(=N)N[N+](=O)[O-])C(=O)Oc2ccc3c(C)cc(=O)oc3c2)cc1` [Example 5, 7-(Nα-tosyl-NG-nitro-L-argininyloxy)-4-methylcoumarin]?
Answer: Rate of 385 nm emission increase ([3]; Trypsin concentration 0 U/mL): 0.36 LU/mm; Rate of 385 nm emission increase ([3]; Trypsin concentration 5 U/mL): 1.21 LU/mm and 2.35 LU/mm; Rate of 385 nm emission increase ([3]; Trypsin concentration 10 U/mL): 2.38 LU/mm and 2.08 LU/mm; Rate of 385 nm emission increase ([3]; Trypsin concentration 20 U/mL): 3.75 LU/mm; pad fluorescence, test solution ([4]; 50 mM pH=7 phosphate buffer containing 10,000 U/mL bovine pancreatic trypsin): fluorescing brightly; pad fluorescence, control solution ([4]; 50 mM pH=7 phosphate buffer without trypsin): remained dull and non-fluorescent
